Results as given in the NIST ThermoML archive (doi:10.1016/j.jct.2012.03.003).

Assay: xn = mol fraction of the nth substance listed
Settings: Liquid, Vibrating tube method

COc1cc2c(cc1O)CC1c3c(cc(O)c(OC)c3-2)CCN1C (stereo not given) [boldine] + CCO
Settings	mass density [kg/m3]
342.88 K, 1000 kPa, x1 = 0.0267	802.49
342.88 K, 2000 kPa, x1 = 0.0267	803.51
342.88 K, 3000 kPa, x1 = 0.0267	804.51
342.88 K, 4000 kPa, x1 = 0.0267	805.52
342.88 K, 5000 kPa, x1 = 0.0267	806.51
342.88 K, 6000 kPa, x1 = 0.0267	807.51
342.88 K, 7000 kPa, x1 = 0.0267	808.51
342.88 K, 8000 kPa, x1 = 0.0267	809.49
342.88 K, 9000 kPa, x1 = 0.0267	810.47
342.88 K, 10000 kPa, x1 = 0.0267	811.43
342.88 K, 11000 kPa, x1 = 0.0267	812.4
342.88 K, 12000 kPa, x1 = 0.0267	813.36
342.88 K, 13000 kPa, x1 = 0.0267	814.3
342.88 K, 14000 kPa, x1 = 0.0267	815.22
342.88 K, 15000 kPa, x1 = 0.0267	816.14
342.88 K, 16000 kPa, x1 = 0.0267	817.05
342.88 K, 17000 kPa, x1 = 0.0267	817.95
342.88 K, 18000 kPa, x1 = 0.0267	818.81
342.88 K, 19000 kPa, x1 = 0.0267	819.68
342.88 K, 20000 kPa, x1 = 0.0267	820.53
342.9 K, 1000 kPa, x1 = 0.0196	790.39
342.9 K, 2000 kPa, x1 = 0.0196	791.42
342.9 K, 3000 kPa, x1 = 0.0196	792.45
342.9 K, 4000 kPa, x1 = 0.0196	793.47
342.9 K, 5000 kPa, x1 = 0.0196	794.49
342.9 K, 6000 kPa, x1 = 0.0196	795.52
342.9 K, 7000 kPa, x1 = 0.0196	796.52
342.9 K, 8000 kPa, x1 = 0.0196	797.53
342.9 K, 9000 kPa, x1 = 0.0196	798.53
342.9 K, 10000 kPa, x1 = 0.0196	799.52
342.9 K, 11000 kPa, x1 = 0.0196	800.49
342.9 K, 12000 kPa, x1 = 0.0196	801.46
342.9 K, 13000 kPa, x1 = 0.0196	802.42
342.9 K, 14000 kPa, x1 = 0.0196	803.37
342.9 K, 15000 kPa, x1 = 0.0196	804.3
342.9 K, 16000 kPa, x1 = 0.0196	805.22
342.9 K, 17000 kPa, x1 = 0.0196	806.13
342.9 K, 18000 kPa, x1 = 0.0196	807.03
342.9 K, 19000 kPa, x1 = 0.0196	807.91
342.9 K, 20000 kPa, x1 = 0.0196	808.78
342.92 K, 1000 kPa, x1 = 0.0012	748.44
342.92 K, 1000 kPa, x1 = 0.0074	761.5
342.92 K, 2000 kPa, x1 = 0.0012	749.56
342.92 K, 2000 kPa, x1 = 0.0074	762.58
342.92 K, 3000 kPa, x1 = 0.0012	750.65
342.92 K, 3000 kPa, x1 = 0.0074	763.66
342.92 K, 4000 kPa, x1 = 0.0012	751.76
342.92 K, 4000 kPa, x1 = 0.0074	764.73
342.92 K, 5000 kPa, x1 = 0.0012	752.85
342.92 K, 5000 kPa, x1 = 0.0074	765.81
342.92 K, 6000 kPa, x1 = 0.0012	753.94
342.92 K, 6000 kPa, x1 = 0.0074	766.87
342.92 K, 7000 kPa, x1 = 0.0012	755.02
342.92 K, 7000 kPa, x1 = 0.0074	767.93
342.92 K, 8000 kPa, x1 = 0.0012	756.1
342.92 K, 8000 kPa, x1 = 0.0074	768.98
342.92 K, 9000 kPa, x1 = 0.0012	757.16
342.92 K, 9000 kPa, x1 = 0.0074	770.04
342.92 K, 10000 kPa, x1 = 0.0012	758.21
342.92 K, 10000 kPa, x1 = 0.0074	771.07
342.92 K, 11000 kPa, x1 = 0.0012	759.27
342.92 K, 11000 kPa, x1 = 0.0074	772.09
342.92 K, 12000 kPa, x1 = 0.0012	760.3
342.92 K, 12000 kPa, x1 = 0.0074	773.12
342.92 K, 13000 kPa, x1 = 0.0012	761.33
342.92 K, 13000 kPa, x1 = 0.0074	774.1
342.92 K, 14000 kPa, x1 = 0.0012	762.33
342.92 K, 14000 kPa, x1 = 0.0074	775.1
342.92 K, 15000 kPa, x1 = 0.0012	763.33
342.92 K, 15000 kPa, x1 = 0.0074	776.07
342.92 K, 16000 kPa, x1 = 0.0012	764.31
342.92 K, 16000 kPa, x1 = 0.0074	777.04
342.92 K, 17000 kPa, x1 = 0.0012	765.26
342.92 K, 17000 kPa, x1 = 0.0074	777.98
342.92 K, 18000 kPa, x1 = 0.0012	766.22
342.92 K, 18000 kPa, x1 = 0.0074	778.92
342.92 K, 19000 kPa, x1 = 0.0012	767.14
342.92 K, 19000 kPa, x1 = 0.0074	779.83
342.92 K, 20000 kPa, x1 = 0.0012	768.07
342.92 K, 20000 kPa, x1 = 0.0074	780.71
343.02 K, 1000 kPa, x1 = 0.0136	775.25
343.02 K, 2000 kPa, x1 = 0.0136	776.31
343.02 K, 3000 kPa, x1 = 0.0136	777.37
343.02 K, 4000 kPa, x1 = 0.0136	778.42
343.02 K, 5000 kPa, x1 = 0.0136	779.47
343.02 K, 6000 kPa, x1 = 0.0136	780.52
343.02 K, 7000 kPa, x1 = 0.0136	781.56
343.02 K, 8000 kPa, x1 = 0.0136	782.6
343.02 K, 9000 kPa, x1 = 0.0136	783.63
343.02 K, 10000 kPa, x1 = 0.0136	784.63
343.02 K, 11000 kPa, x1 = 0.0136	785.65
343.02 K, 12000 kPa, x1 = 0.0136	786.65
343.02 K, 13000 kPa, x1 = 0.0136	787.64
343.02 K, 14000 kPa, x1 = 0.0136	788.62
343.02 K, 15000 kPa, x1 = 0.0136	789.58
343.02 K, 16000 kPa, x1 = 0.0136	790.53
343.02 K, 17000 kPa, x1 = 0.0136	791.46
343.02 K, 18000 kPa, x1 = 0.0136	792.39
343.02 K, 19000 kPa, x1 = 0.0136	793.28
343.02 K, 20000 kPa, x1 = 0.0136	794.17
352.79 K, 1000 kPa, x1 = 0.0196	780.8
352.79 K, 2000 kPa, x1 = 0.0196	781.92
352.79 K, 3000 kPa, x1 = 0.0196	783.03
352.79 K, 4000 kPa, x1 = 0.0196	784.09
352.79 K, 5000 kPa, x1 = 0.0196	785.23
352.79 K, 6000 kPa, x1 = 0.0196	786.32
352.79 K, 7000 kPa, x1 = 0.0196	787.4
352.79 K, 8000 kPa, x1 = 0.0196	788.47
352.79 K, 9000 kPa, x1 = 0.0196	789.53
352.79 K, 10000 kPa, x1 = 0.0196	790.58
352.79 K, 11000 kPa, x1 = 0.0196	791.62
352.79 K, 12000 kPa, x1 = 0.0196	792.64
352.79 K, 13000 kPa, x1 = 0.0196	793.65
352.79 K, 14000 kPa, x1 = 0.0196	794.65
352.79 K, 15000 kPa, x1 = 0.0196	795.64
352.79 K, 16000 kPa, x1 = 0.0196	796.61
352.79 K, 17000 kPa, x1 = 0.0196	797.57
352.79 K, 18000 kPa, x1 = 0.0196	798.51
352.79 K, 19000 kPa, x1 = 0.0196	799.44
352.79 K, 20000 kPa, x1 = 0.0196	800.36
352.81 K, 1000 kPa, x1 = 0.0012	738.74
352.81 K, 1000 kPa, x1 = 0.0136	765.67
352.81 K, 2000 kPa, x1 = 0.0012	739.95
352.81 K, 2000 kPa, x1 = 0.0136	766.82
352.81 K, 3000 kPa, x1 = 0.0012	741.15
352.81 K, 3000 kPa, x1 = 0.0136	767.97
352.81 K, 4000 kPa, x1 = 0.0012	742.33
352.81 K, 4000 kPa, x1 = 0.0136	769.1
352.81 K, 5000 kPa, x1 = 0.0012	743.51
352.81 K, 5000 kPa, x1 = 0.0136	770.24
352.81 K, 6000 kPa, x1 = 0.0012	744.68
352.81 K, 6000 kPa, x1 = 0.0136	771.36
352.81 K, 7000 kPa, x1 = 0.0012	745.85
352.81 K, 7000 kPa, x1 = 0.0136	772.46
352.81 K, 8000 kPa, x1 = 0.0012	746.99
352.81 K, 8000 kPa, x1 = 0.0136	773.56
352.81 K, 9000 kPa, x1 = 0.0012	748.13
352.81 K, 9000 kPa, x1 = 0.0136	774.65
352.81 K, 10000 kPa, x1 = 0.0012	749.26
352.81 K, 10000 kPa, x1 = 0.0136	775.73
352.81 K, 11000 kPa, x1 = 0.0012	750.37
352.81 K, 11000 kPa, x1 = 0.0136	776.81
352.81 K, 12000 kPa, x1 = 0.0012	751.47
352.81 K, 12000 kPa, x1 = 0.0136	777.86
352.81 K, 13000 kPa, x1 = 0.0012	752.55
352.81 K, 13000 kPa, x1 = 0.0136	778.9
352.81 K, 14000 kPa, x1 = 0.0012	753.61
352.81 K, 14000 kPa, x1 = 0.0136	779.93
352.81 K, 15000 kPa, x1 = 0.0012	754.67
352.81 K, 15000 kPa, x1 = 0.0136	780.95
